Measurements taken from patent US10577610B2, “EpCAM aptamers and conjugates thereof” (Deakin University, priority 2015, dated 2020).
Read-outs that look alike come from different tables or passages of the source. [invdT] = inverted (3'-3') thymidine; {TYE665} = TYE665 fluorescent dye

Experiments:
HEY cells = assay: Confocal microscopy internalisation into HEY cells; type: cell-based, human
Experimental: Confocal microscopy was used as a means of visualising aptamer internalisation into the cells. Both aptamers and cells were prepared in the same manner as described above before they were mixed and allowed to incubate at 37° C. The aptamers were used at a concentration of 200 nM and were allowed to incubate for 60 minutes. The concentration for the conjugate (bifunctional) aptamers was 400 nM and these were incubated with the cells for 120 minutes. Ten minutes prior to end of incubation, 2 μL of Hoechst nuclear stain (10 mg/mL) was added to cells. Cells were then washed three times with 100 μL of PBS as described above and resuspended in 20 μL (8×10^5 cells/well) in an 8-chambered slide (Lab-Tek II, Nunc) for visualisation. Cells were incubated in blocking buffer for 60 mins followed by resuspension in binding buffer containing the aptamer and incubated for 60 mins at 37° C. Bisbenzimide Hoechst 33342 (3 mg/ml) (Sigma) was added to the cells during the final 10 min of incubation. The aptamer solution was removed and the cells were washed three times for 5 min each in PBS prior to visualisation using a FluoView FV10i laser scanning confocal microscope (Olympus).
As with the anti-TfR single aptamers, it was necessary to ensure that the binding that had been observed could be attributed to cellular internalisation rather than surface attachment. This was done in a similar manner as before. […]

[1] = mouse, in vivo
[2] = 40 nmol/Kg i.v.
Experimental: NOD/SCID mice received a single i.v. injection of 40 nmol/Kg of transferrin/EpCAM aptamer with four various structures (TEPP: Bi3 transferrin^+/EpCAM^+; TEPN: transferrin^+/EpCAM^−; TENP: transferrin^−/EpCAM^+; TENN: Bi1 transferrin^−/EpCAM^−). The concentration of aptamers, expressed as % of injected dose (ID) per mg of tissue, in tissues indicated was determined at 30 min and 60 min after the agent administration using ELISA. Data are means±SEM (n=3).
To evaluate the advantage of positive transferrin-modified aptamers over their negative transferrin-modified counterparts in brain uptake, the biodistribution of aptamers with four various structures (transferrin+/EpCAM+, transferrin+/EpCAM−, transferrin−/EpCAM+, transferrin−/EpCAM−) were studied at 30 min and 60 min after a single i.v. injection of these agents at a dosage of 40 nmol/Kg into NOD/SCID mice.

TfR3: version of TfR1 with scrambled binding loop sequence, SEQ ID NO:6 (DNA GCGTGGTACCACGC; DNA, 5' {TYE665}, 3' [invdT], backbone not given here)
Internalisation of anti-TfR aptamer into HEY cells (HEY cells): not detected

Bi1: aptamer conjugate based on TfR1 and scrambled EpCAM binding loop, negative control, SEQ ID NO:8 (GCGCGTGCACGCGCTAACGGATTCCTTTTCCGN; listed as DNA, further chemistry not given here)
Internalisation into EpCAM-positive HEY cell line (HEY cells; conjugate aptamers, 400 nM, two hour): observed to internalise
Fluorescent signal in dissected brain [1]: no signal

5′-GCGCGGTACCGCGCTAACGGAGGTTGCGTCCGT-3′ (GCGCGGTACCGCGCTAACGGAGGTTGCGTCCGN; listed as DNA, chemistry not given here) [Bi3]
Accumulation in brain, fold higher than transferrin−/EpCAM+ ([2]; 30 min): 3.1 fold
Accumulation in brain, fold higher than transferrin−/EpCAM− ([2]; 30 min): 12.2 fold
Accumulation in brain, fold higher than transferrin−/EpCAM+ ([2]; 60 min): 2.5 fold
Accumulation in brain, fold higher than transferrin−/EpCAM− ([2]; 60 min): 10.8 fold
